Results: patent US11319273B2, “Lipophilic curcumin analogs and methods of inhibiting HIV-1, treating latent HIV in the brain, and preventing HIV-mediated cognitive decline and HIV dementia” (Howard University, priority 2012, dated 2022)

Key:
BDNF = assay: Effect on BDNF mRNA level in CEM cells; format: cell-based; details: CEM cells (FIG. 4)
Description: (§1) Along with brain-derived neurotrophic factor (“BDNF”), protein kinase B (“AKT”), and mitogen-activated protein kinase 1 (“MAPK1”) (i.e., ERK1/2) genes are known to critically regulate cell survival and growth of neurons during development and the survival and function of adult neurons, as well as modulate synaptic transmission and plasticity. This example compares activities of natural curcumin and curcumin analog (1E,4E)-1,5-bis(4-hydroxy-3-methoxyphenyl)penta-1,4-dien-3-one on AKT, MAPK1 and […]. The analog was predicted to be more biologically soluble, absorbable, and more resistant to degradation than the natural curcumin. It has already been shown that natural curcumin increases the expression of BDNF in the hippocampus of rats. It was believed that, compared to natural curcumin, the analog would result in greater increase in the activities of these three neuroprotective genes as proof-of-principle of neuroprotection from latent HIV brain disease. The analysis was conducted on CEM cell lines, which are cells that are susceptible to HIV infection.

MAPK1 = assay: Effect on MAPK1 mRNA level in CEM cells; format: cell-based; details: CEM cells (FIG. 4)
Description: as §1

AKT1 = assay: Effect on AKT1 mRNA level in CEM cells; format: cell-based; details: CEM cells (FIG. 4)
Description: as §1

[1] = Lipophilicity (octanol-water partition coefficient); format: physicochemical
Description: As used herein, lipophilicity refers to the affinity of a compound for a lipophilic environment. By one approach, lipophilicity can be determined using an octanol-water partition coefficient (Kow), which represents the ratio of the solubility of a compound in octanol (a non-polar solvent) to its solubility in water (a polar solvent). The higher the Kow, the more non-polar the compound. Log Kow values are generally inversely related to aqueous solubility and directly proportional to molecular weight. For purposes herein, lipophilicity values range between 0 to 10 and a value of at least 2.5 indicates good lipophilicity. A log Kow value less than 0 is considered hydrophilic.

[2] = test system: vesicular stomatitus virus glycoprotein (VSVG) pseudotyped HIV-1 pNL 4-3 virus expressing luciferase (VSVG-HIV-1 Luc)
[3] = test system: vesicular stomatitus virus glycoprotein (VSVG) pseudotyped HIV-1 pNL 4-3 virus expressing luciferase (VSVG-HIV-1 Luc); assay: microbe, parasite or virus in culture; details: Human immunodeficiency virus 1, T-cell, 48 h, read-out: anti-HIV activity IC50

SMILES	BDNF mRNA level (BDNF)	MAPK1 mRNA level (MAPK1)	AKT1 mRNA level (AKT1)	lipophilicity [1]	inhibition of HIV-1 virus in vitro [2]	therapeutic index (IC50:cytotoxicity ratio) as compared to curcumin [2]	IC50 [3] [nM]
COc1cc(/C=C/C(=O)CC(=O)/C=C/c2ccc(O)c(OC)c2)ccc1O [Natural curcumin, Curcumin]	decrease	slight increase	slight increase	–	–	–	–
COc1cc(/C=C/C(=O)/C=C/c2ccc(O)c(OC)c2)ccc1O [curcumin analog, (1E,4E)-1,5-bis(4-hydroxy-3-methoxyphenyl)penta-1,4-dien-3-one]	significantly increased	significantly increased	significantly increased	very lipophilic	able to inhibit HIV at the nanomolar level	wider therapeutic index	8
